A word on the Ki: it is the dissociation constant of the complex between target and ligand, obtained from inhibition or displacement. Broadly, the IC50 is the midpoint of a concentration-inhibition curve. The inhibition is how much of the control response was suppressed. Read a high inhibition as a response far below the control.

Data set [1] deals with T1, Receptor-interacting serine/threonine-protein kinase 1 (Homo sapiens, UniProt Q13546).
T1 sequence (Q13546 whole entry): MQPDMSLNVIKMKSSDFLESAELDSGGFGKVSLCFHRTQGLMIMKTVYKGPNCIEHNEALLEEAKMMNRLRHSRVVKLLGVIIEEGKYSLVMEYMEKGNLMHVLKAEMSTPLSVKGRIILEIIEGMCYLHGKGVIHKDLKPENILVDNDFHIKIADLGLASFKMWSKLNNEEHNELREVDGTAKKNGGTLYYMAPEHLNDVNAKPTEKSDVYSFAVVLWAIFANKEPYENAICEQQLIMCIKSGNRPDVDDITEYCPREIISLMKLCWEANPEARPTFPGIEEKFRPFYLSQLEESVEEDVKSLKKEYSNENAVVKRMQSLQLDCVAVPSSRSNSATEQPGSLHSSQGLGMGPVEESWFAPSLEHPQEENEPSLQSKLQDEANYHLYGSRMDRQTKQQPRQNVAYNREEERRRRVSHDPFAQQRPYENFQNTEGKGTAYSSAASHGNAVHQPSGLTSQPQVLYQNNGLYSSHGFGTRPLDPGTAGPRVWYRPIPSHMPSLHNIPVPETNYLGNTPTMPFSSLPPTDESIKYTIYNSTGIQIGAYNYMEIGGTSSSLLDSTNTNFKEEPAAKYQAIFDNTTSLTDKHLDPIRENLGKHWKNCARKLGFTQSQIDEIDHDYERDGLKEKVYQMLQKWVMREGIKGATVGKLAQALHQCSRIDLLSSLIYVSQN
The data set is described as follows: Inhibition of human RIPK1 assessed as inhibition constant by ADP-Glo Kinase assay. In general terms: ADP-Glo turns the ADP formed in a reaction into a luminescent signal.

The test system of a further data set is U-937. The data set is described as follows: Inhibition of necroptosis in human U-937 cells. The format is functional, cell-based.
Data set [2] deals with Mitogen-activated protein kinase kinase kinase 9 (Homo sapiens) (UniProt P80192). The data set is described as follows: Inhibition of MLK1 (unknown origin) at 10 uM relative to control.
Mitogen-activated protein kinase kinase kinase 9 (Homo sapiens), sequence (P80192 whole entry, looked up): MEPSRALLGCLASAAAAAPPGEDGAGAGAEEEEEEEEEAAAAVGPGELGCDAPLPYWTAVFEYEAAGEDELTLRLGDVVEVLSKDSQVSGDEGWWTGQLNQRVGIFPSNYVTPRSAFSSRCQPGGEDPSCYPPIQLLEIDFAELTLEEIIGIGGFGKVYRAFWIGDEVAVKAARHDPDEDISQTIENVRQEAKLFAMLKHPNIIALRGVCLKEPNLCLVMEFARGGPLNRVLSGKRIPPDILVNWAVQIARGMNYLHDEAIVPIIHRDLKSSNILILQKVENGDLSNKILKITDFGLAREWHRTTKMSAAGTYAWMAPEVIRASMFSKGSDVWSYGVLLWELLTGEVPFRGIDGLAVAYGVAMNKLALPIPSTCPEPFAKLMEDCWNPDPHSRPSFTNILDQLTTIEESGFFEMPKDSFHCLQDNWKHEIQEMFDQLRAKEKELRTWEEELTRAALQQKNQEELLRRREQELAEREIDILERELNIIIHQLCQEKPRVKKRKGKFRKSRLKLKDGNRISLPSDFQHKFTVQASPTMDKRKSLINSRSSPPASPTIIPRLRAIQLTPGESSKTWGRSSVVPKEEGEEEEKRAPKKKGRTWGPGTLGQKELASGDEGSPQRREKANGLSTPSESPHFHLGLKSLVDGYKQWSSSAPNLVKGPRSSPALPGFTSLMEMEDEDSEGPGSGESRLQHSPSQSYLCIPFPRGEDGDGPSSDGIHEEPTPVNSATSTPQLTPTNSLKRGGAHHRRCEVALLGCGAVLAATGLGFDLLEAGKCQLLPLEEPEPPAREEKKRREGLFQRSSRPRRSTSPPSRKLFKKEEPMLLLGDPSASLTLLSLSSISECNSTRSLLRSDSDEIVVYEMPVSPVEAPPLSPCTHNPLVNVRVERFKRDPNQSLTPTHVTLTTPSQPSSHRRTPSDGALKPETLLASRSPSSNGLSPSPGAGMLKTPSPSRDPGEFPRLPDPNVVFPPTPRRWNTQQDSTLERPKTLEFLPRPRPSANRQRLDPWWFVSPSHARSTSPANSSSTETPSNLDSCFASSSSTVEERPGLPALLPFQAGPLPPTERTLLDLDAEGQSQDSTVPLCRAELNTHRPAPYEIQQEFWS
Data set [3] is described as follows: Stability of the compound in PBS at pH 7.4 measured after 24 hrs. The format is physicochemical. To be noted: read-out: Stability.
Data set [4] concerns the target T2, Receptor-interacting serine/threonine-protein kinase 1 (Homo sapiens) (UniProt Q13546).
T2 sequence (whole entry): T1 sequence (Q13546 whole entry)
The data set can be described thus: Inhibition of RIPK1 (unknown origin) at 1 uM relative to control.

For `CN1C(=O)C(C(=O)Nc2nnn(Cc3ccccc3)n2)CCc2ccccc21` (stereo not drawn), in data set [1], the Ki was 0.0316 µM. It took 0.0363 µM to reach half-maximal inhibition in the data set on U-937 (IC50). Turning to `CN1C(=O)C(C(=O)Nc2cn(Cc3ccccc3)cn2)CCc2cccnc21` (stereo not drawn), in data set [1], the Ki is 0.214 µM. In the data set with U-937, the half-maximal inhibitory concentration (IC50) was 1.1 µM.

In the case of `CN1C(=O)C(C(=O)Nc2ncc(Cc3ccccc3)s2)CCc2ccccc21` (stereo not drawn), the Ki in data set [1] is 0.00191 µM. For the same molecule, the IC50 with U-937 was 0.0112 µM.

`CN1C(=O)[C@@H](NC(=O)c2n[nH]c(Cc3ccccc3)n2)COc2ccccc21` [GSK2982772] had an IC50 with U-937 of 0.00589 µM.

As to `CN1C(=O)C(C(=O)Nc2cn(Cc3ccccc3)cn2)CCc2ccccc21` (stereo not drawn), the Ki in data set [1] is 0.135 µM.

With `CN1C(=O)C(C(=O)Nc2cn(Cc3c(F)cccc3F)cn2)CCc2ccccc21` (stereo not drawn), the Ki in data set [1] is 0.0562 µM. Moreover, the IC50 in the data set on U-937 was 0.148 µM. `COc1cc2c(cn1)N(C)C(=O)[C@H](C(=O)Nc1ncc(Cc3ccccc3)s1)CC2`: the inhibition in data set [2] amounted to 28%. Moreover, in data set [1], the Ki was 1.45 µM.

As to `CN1C(=O)C(C(=O)Nc2cn(Cc3ccccc3)cn2)CCc2ccncc21` (stereo not drawn), in data set [1], the inhibition constant Ki was 0.794 µM. The molecule further showed an IC50 in the data set on U-937 of 0.562 µM.

Take `CN1C(=O)C(C(=O)Nc2ncn(Cc3ccccc3)n2)CCc2ccccc21` (stereo not drawn): the Ki in data set [1] is 0.0437 µM. Also, it took 0.0617 µM to reach half-maximal inhibition with U-937 (IC50). As for `CN1C(=O)C(C(=O)Nc2cn(Cc3ccccc3)nn2)CCc2ccccc21` (stereo not drawn), the Ki in data set [1] is 0.0589 µM. Also, in the data set on U-937, the IC50 is 0.0794 µM. Consider `CN1C(=O)C(C(=O)Nc2nc(Cc3ccccc3)n[nH]2)CCc2ccccc21` (stereo not drawn), for which the remaining at 24 h in data set [3] was 14%. Further, the inhibition in data set [4] amounted to 22%. On to `CN1C(=O)C(C(=O)Nc2ncc(Cc3ccccc3)o2)CCc2ccccc21` (stereo not drawn), for which the Ki in data set [1] is 0.2 µM. In the data set with U-937, this molecule had an IC50 of 0.891 µM. Take `COc1cc2c(cn1)N(C)C(=O)C(C(=O)Nc1ncc(Cc3ccccc3)s1)CC2` (racemic): in data set [1], the Ki is 0.0525 µM. The same molecule showed an IC50 in the data set on U-937 of 0.0575 µM.

Turning to `COc1cc2c(cn1)N(C)C(=O)C(C(=O)Nc1cn(Cc3ccccc3)cn1)CC2` (stereo not drawn), the Ki in data set [1] is 0.575 µM. The molecule further had an IC50 in the data set with U-937 of 0.427 µM.

As for `COc1cc2c(cn1)N(C)C(=O)[C@@H](C(=O)Nc1ncc(Cc3ccccc3)s1)CC2`, in data set [1], the Ki was 0.0219 µM. In the data set with U-937, this molecule gave an IC50 of 0.0631 µM.

The values are drawn from ChEMBL document CHEMBL5625266, “Design, synthesis and biological evaluation of novel cyclic malonamide derivatives as selective RIPK1 inhibitors” (Bioorg Med Chem Lett, 2024).
